# Reference: PMC12397098, “3-Monothiopomalidomide, a new immunomodulatory imide drug (IMiD), blunts inflammation and mitigates ischemic stroke in the rat” (GeroScience, 2025)
# Read-outs that look alike come from different tables or passages of the source.
# How the values were obtained:
# [1] = human, 1 μM
# [2] = Sprague Dawley, rat, 1 μM
# [3] = tested on: LPS-induced cytokines (TNF-α, IL-6, IL-10, IL-13) in plasma and cerebral cortex; experiment: Systemic and brain LPS anti-inflammatory study in rats; format: in vivo; conditions: rat, 4 h
# Protocol: They were administered, via the intraperitoneal (I.P.) route, nano-formulated 3-MP at a dose of 13.25 or 26.5 mg/kg (equimolar to a clinically translatable dose of 12.5 and 25 mg/kg thalidomide), vehicle or pomalidomide (25 mg/kg). One hour later, animals were administered either LPS (1 mg/kg, E.Coli 055:B5, Sigma Aldrich, in normal saline, 0.5 mg/mL) or an alike volume of saline (without LPS) via the I.P. route. The LPS dose was selected from prior pilot studies to provide a substantial but sub-maximal rise in plasma proinflammatory cytokine levels, in line with our prior research. The selected 3-MP and pomalidomide doses were chosen as they are equimolar to, or are less than, doses of thalidomide and analogues that have been verified to be well tolerated in our previous studies and are of translational relevance to humans. Four hours after LPS administration, the animals were euthanized, and blood and brain tissues were collected and placed on wet ice. Plasma was quickly separated from blood by centrifugation (10,000 × g, 5 min, 4 °C) and together with the brain samples (cerebral cortex) was stored at − 80 °C. At a later time, cerebral cortex samples were sonicated in a TRIS-based lysis buffer (Mesoscale Discovery) with 3 × protease/phosphatase inhibitors (Halt™ Protease and Phosphatase Inhibitor Cocktail, Thermo Fisher Scientific, Waltham, MA, USA). Samples were then centrifuged (10,000 × g, 5 min, 4 °C), supernatant separated, and protein concentrations were quantified by bicinchoninic acid assay (BCA, Thermo Fisher Scientific). Rat plasma and cerebral cortex samples were analyzed by multi-proinflammatory cytokine ELISA (V-PLEX Proinflammatory Panel 2 Rat Kit, Mesoscale Discovery) following the manufacturer’s protocol to quantify TNF-α, IL-6, IL-10, and IL-13 levels.
# in vitro = conditions: Sprague Dawley, rat, microsomes
# [4] = tested on: LPS-induced cytokines (TNF-α, IL-6, IL-10, IL-13) in plasma and cerebral cortex; experiment: Systemic and brain LPS anti-inflammatory study in rats; format: in vivo; conditions: rat, 1 h pre-treatment, 3-MP 13.23 and 26.47 mg/kg I.P., pomalidomide 25 mg/kg I.P., LPS 1 mg/kg I.P., 4 h
# [5] = 3-MP nanosuspension time-dependent stability (LC-MS); format: physicochemical
# Protocol: Thalidomide, pomalidomide, and most related analogues have poor aqueous solubility. As a consequence, to aid biological evaluation, a 3-MP nanosuspension was prepared in line with our prior study. Specifically, the drug was mixed in an aqueous solution (Tween 80/water) and vortexed for 10 min. The coarse drug suspension was then placed in Eppendorf microtubes containing approximately 0.4 g of 0.1–0.2 mm yttrium-stabilized zirconia-silica beads (Silibeads® Typ ZY Sigmund Lindner, Germany). These were vortexed twice, at 3000 rpm for 45 min, using a beads-milling cell disruptor (Disruptor Genie®, Scientific Industries, USA). […] To evaluate the stability of the 3-MP nanosuspension, a vial (241 μM, 4 °C) was time-dependently sampled over a 98-day period, and the drug was quantified by LC–MS (see Supplementary information). […]
# Nanoformulation LC/MS Assays: A rudimentary assay was devised to assess the relative stability of nanoformulated 3-MP. In short, a sample of nanoformulated 3-MP was monitored for degradation until, roughly, 10% of the original material was lost due to hydrolysis and other such factors. […] These samples were immediately analyzed. […] The areas of the ensuing UV peaks detected at 254nm served as the basis for analysis, and the stock nanoformulation was monitored as a function of derivation from the 3-MP nanoformulation t=0 area (defined as “100% Area Percent” in the initial trace). […]
# [6] = 13.25 and 26.5 mg/kg I.P. 1 h before LPS 1 mg/kg I.P.
smiles,measurement,setting,value
"Nc1cccc2c1C(=S)N(C1CCC(=O)NC1=O)C2=O (stereo not drawn) [3-MP, 3-Monothiopomalidomide]",reduction of 3-MP levels following 60-min incubation,[1]; 60 min,8.2%
same,Remaining (NCF = 60 min),"[1]; microsomes, 1 h",115.3%
same,Remaining (T = 60 min),"[1]; microsomes, 1 h",91.8%
same,reduction of 3-MP levels following 60-min incubation,[2]; 60 min,24.3%
same,Remaining (NCF = 60 min),"[2]; microsomes, 1 h",116.4%
same,Remaining (T = 60 min),"[2]; microsomes, 1 h",75.7%
same,LPS-mediated reduction in plasma IL-13,"[3]; 3-MP both doses I.P., LPS 1 mg/kg",abated
same,LPS-mediated elevations in brain IL-13,"[3]; 3-MP both doses and pomalidomide I.P., LPS 1 mg/kg",maintained
same,decline in IL-6 brain levels,"[3]; 3-MP low dose 13.25 mg/kg I.P., pomalidomide 25 mg/kg I.P., LPS 1 mg/kg",failed to achieve statistical significance
same,LPS-induced rise in plasma IL-6,[3]; [6],reduced
same,LPS-induced rise in plasma TNF-α,[3]; [6],reduced
same,IL-10 elevation induced by LPS in plasma or brain,"[3]; high- or low-dose 3-MP or pomalidomide I.P., LPS 1 mg/kg",not lessened
same,CLint scaled at 1 μM,in vitro,< 17.3 mL/min/kg
same,half-life at 1 μM,in vitro,> 2.42 h
same,microsomal CLint at 1 μM,in vitro,< 9.6 µL/min/mg
same,LPS-induced cytokine changes in plasma and cerebral cortex,[4],significantly mitigated
same,"area of the 3-MP peak, relative intensity","[5]; nanoformulated 3-MP stock stored in the dark at 4 °C, t=98 days, UV 254 nm, relative to t=0",below 90%
same,stability of 3-MP nanosuspension,"[5]; nanosuspension in Tween-80/water, 241 μM, 4 °C, 98-day period, LC–MS/MS",time-dependently stable
